Results on one compound are retold here after patent US12091424B2, “Rapamycin derivatives” (NOVARTIS AG, priority 2017, dated 2024).

pIC50, pKd: −log10 of the molar value.

The test system of data set [1] is S6K1 (Thr389) in FKBP12 knock-down 293T cells. The experiment in a line: S6K1 (Thr389) phosphorylation ELISA in FKBP12 knock-down 293T cells. The format is cell-based. The following applies: 2 hours treatment.
Experimental: Generating FKPB12 knock-down cells. […] Selection was performed with puromycin for 48 hours and cells were plated for colony formation. FKBP12 knock-down clones were screened by immunoblotting with an anti-FKBP12 antibody (Thermo Scientific, Pierce #PA1-026A).
WT, FKBP12 knock-down and FKBP12 knock-out 293T cells were plated at a density of 30,000 cells per well in poly-D-Lysine coated 96-well plates (Corning, #354461) in Dulbecco's modified Eagle's medium (ThermoFisher, #11995-065) supplemented with 10% fetal bovine serum (ThermoFisher, #16140-071). Cells were incubated at 37° C., 5% CO2 for 48 hours until they reached 80% confluence. […] Media supplemented with blank Dimethyl sulfoxide (DMSO) was used as a control for both compounds. Phosphorylated amounts of S6K1 (Thr389) were detected by a sandwich ELISA kit (Cell signaling, #7063C) following the manufacture's protocol.
A further data set has as its system mTORC1 signaling. Nature of the data set: MEF TSC1−/− cell-based assay for rapalog potency (pS6). On the set-up: species or system Mouse. Conditions: Mus musculus, MEF TSC1−/− cells; average from multiple assays. On the procedure:
Cell-based assay for rapalog potency determination. Rapalog potency was determined using MEF TSC1−/− cell based assay. MEF TSC1−/− cells are Mouse Embryonic Fibroblasts deficient in Tuberous sclerosis protein—TSC1, which negatively regulates mTORC1 signaling and thus display constitutive mTORC1 activation, resulting in phosphorylation (activation) of downstream molecules. This cell-based assay is used to measure inhibition (de-phosphorylation) of S6 and 4EBP1 by rapalogs or other mTOR inhibitors.
MEF TSC1−/− cells were plated on Poly-D-lysine coated 384 well Griener clear bottom plates and incubated overnight at 37° C., 5% CO2. […] Nuclei were visualized with Hoechst (ThermoFisher Scientific #H3570) staining. Cells were imaged (InCell 600) using respective fluorescence channels and the potency of mTOR inhibitors was defined by pS6 IC50 (nM).
In vitro potency of mTOR inhibitors was defined by pS6 IC50 (nM) in MEF TSC1−/− cells.

A further data set concerns the target FKBP51 (Homo sapiens (Human), UniProt Q13451). The experiment in a line: SPR assay, binding affinity to FKBP51. Conditions: single-cycle kinetics. On the procedure: SPR Assay to Determine Binding Affinity to FK506-Binding Proteins (FKBP). N-terminal avi-his6 tagged FKBP fusions to FKBP12, FKBP51 and FKBP52 were expressed in E. coli and purified using standard chromatography. Each protein was subsequently immobilized on a streptavidin chip in a Biacore 8K SPR instrument (GE Healthcare). Using single-cycle kinetics, compound titrations were flowed at 45 uL/min over each surface using 2-minute association and 30-minute dissociation phases in a buffer containing 50 mM Tris pH 7.5/150 mM NaCl/0.01% Tween 20/1 mM DTT/2% DMSO. The data was fit using low molecular weight (LMW) single-cycle kinetics. The equilibrium dissociation constants (KD) are reported.

Data set [2] in a line: Comparative blood and brain concentrations in rats after oral dosing. The format is in vivo. The following applies: rat; p.o. 3, 10 and 30 mg/kg; 3 h and 24 h. How it is done:
Concentrations were determined using HPLC/Mass spectrometry. […] Blood and brain tissues were collected at 3 hours (h) and 24 h following treatment to determine concentrations of the compounds.

Another data set relates to mTORC1 pathway. The experiment in a line: Inhibition of mTORC1 pathway in rat liver (p-S6/t-S6 immunoblot). The format is in vivo. On the procedure:
Protein extraction and immunoblotting. For protein extraction, snap frozen tissues were lysed in MSD Lysis Buffer (MSD, Rockville, Maryland), supplemented with complete EDTA free protease inhibitor and PhosSTOP phosphatase inhibitor tablets (Roche, Manheim, Germany), and centrifuged at 13,000 g for 20 min at 4° C. The resultant supernatant was used for immunoblotting. Protein was quantified with BCA protein assay (Thermo Scientific, MA). Samples were resolved on 4-20% Criterion™ TGX™ Precast Midi Protein gels (Bio-Rad, CA) and transferred onto nitrocellulose membranes (Bio-Rad, CA) using a Trans Turbo Blot system (Bio-Rad, CA). Immunoblotting was performed with antibodies to p-S6 and t-S6 from Cell Signaling Technologies (all 1:1000 in TBS-T with 5% BSA). The ‘p’ and ‘t’ prefixes signify ‘phosphorylated’ and ‘total’ forms respectively. HRP-conjugated secondary antibodies against rabbit (#7074) were from Cell Signaling Technologies, MA. […] Resultant digital images were converted into a TIFF format and quantified using ImageJ software.
The ability of Example 2 to inhibit mTORC1 pathway in vivo was determined in rats aged 4 months (FIG. 5A-5D).

A short description of another data set: in vivo. The following applies: male, Sprague Dawley, rat, whole blood.

FKBP51, sequence (Q13451 whole entry, the tested form may be a part): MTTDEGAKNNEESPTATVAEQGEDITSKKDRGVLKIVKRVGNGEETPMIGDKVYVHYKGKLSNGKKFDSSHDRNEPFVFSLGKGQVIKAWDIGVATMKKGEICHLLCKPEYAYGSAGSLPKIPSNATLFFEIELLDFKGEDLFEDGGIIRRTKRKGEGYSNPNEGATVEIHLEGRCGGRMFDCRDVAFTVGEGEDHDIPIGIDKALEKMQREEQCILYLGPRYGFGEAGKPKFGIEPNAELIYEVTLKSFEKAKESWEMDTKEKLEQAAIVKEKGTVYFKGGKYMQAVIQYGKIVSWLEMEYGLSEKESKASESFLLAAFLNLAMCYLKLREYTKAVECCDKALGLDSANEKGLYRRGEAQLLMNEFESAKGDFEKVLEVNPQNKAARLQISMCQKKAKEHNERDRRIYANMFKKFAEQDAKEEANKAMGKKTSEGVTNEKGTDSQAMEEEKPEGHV

On to `CO[C@@H]1C[C@H](C[C@@H](C)[C@@H]2CC[C@H](C)/C=C(\C)[C@@H](O)[C@@H](OC)C(=O)[C@H](C)C[C@H](C)/C=C/C=C/C=C(\C)[C@H](N3CCCS3(=O)=O)C[C@@H]3CC[C@@H](C)[C@@](O)(O3)C(=O)C(=O)N3CCCC[C@H]3C(=O)O2)CC[C@H]1O` [Example 2, (R)—C16-(1,1-dioxidoisothiazolidin-2-yl)-C32-deoxo-rapamycin], for which, in data set [1], the “maximum inhibition of S6K1(Thr389)” value turned out to be 40%. Also, the pIC50 in the data set on mTORC1 signaling was 9.56. In addition, the pKd at FKBP51 was less than 5.00. In addition, in data set [2], the “blood concentrations compared with RAD001” value is reported as “higher” and the “brain concentrations compared with RAD001” value is “higher”. For the same compound, in the data set with mTORC1 pathway (24 h following dosing with 10 (trend p=0.06) and 30 mg/kg), the “S6 inactivation in rat livers” value is “remained inactivated”. Besides, in the data set on mTORC1 pathway (single dose 3, 10 and 30 mg/kg, three hours following dosing, vs vehicle), the “de-phosphorylation (inactivation) of S6 in rat livers” value is “significant de-phosphorylation”. Further, in “in vivo” (iv, 1 mg/kg), the clearance turned out to be 0.54 L/h/kg and the half-life is 9.9 h. For the same compound, the bioavailability in “in vivo” (oral, 3 mg/kg) turned out to be 18%.
